Where two headings read alike, the source gives them in different places.
Columns and labels:
Assay type in all cases: cell-based
[1] = test system: AsPC-1 pancreatic cancer cell line (KRAS G12D mutation); assay: Proliferation inhibition measured by CTG (CellTiter Glo), AsPC-1; conditions: Homo sapiens, ASPC1
Text: (§1) NCI-H358 is a human non-small cell lung cancer cell line with KRAS G12C mutation; PANC-1 and AsPC-1 are pancreatic cancer cell lines with KRAS G12D mutation; AGS is a gastric cancer cell line with KRAS G12D mutation; A427 is a lung cancer cell line with KRAS G12D mutation; THP-1 is a leukemia cell line with NRAS G12D mutation; Hs 578T is a breast cancer cell line with HRAS G12D mutation; SW480 is a colon cancer cell lines with KRAS G12V mutation; A375 is a wild type malignant melanoma cell line. The proliferation inhibitory effect of the compounds on various mutations was evaluated by determining the proliferation inhibitory activity of the compounds on these cell lines.
(§2) The assay was conducted on either 384-well plates or 96-well plates. The procedures are as follows:
(§3) The cell suspensions were added to 384- or 96-well plates (384-well plate: 40 μL; 96-well plate: […]) except for peripheral wells. The plates were incubated in a carbon dioxide incubator overnight. Prepared compounds (10 concentration gradients by serial 3-fold dilution) were added to the wells. The cell plates were incubated in a carbon dioxide incubator for 120 hours. CellTiter Glo reagent (384 well plate: 25 μL; 96 well plate: 100 μL) was added to the 384- or 96-well plates. The plates were shaken for 10 minutes away from light, and incubated for 10 minutes. The plates were read by EnVision system. Inhibition curves were plotted using XLFit and IC50 values were calculated. “IC50>10 μM” is denoted by “*”, “10 μM≥IC50>1 μM” is denoted by “**”, “1 μM≥IC50>100 nM” is denoted by “***”, and “IC50≤100 nM” is denoted by “****”.

[2] = test system: NCI-H358 cells (KRAS G12C mutation); assay: Proliferation inhibition measured by CTG (CellTiter Glo), NCI-H358; conditions: Homo sapiens
Text: as §1, §2, §3

[3] = test system: A375 wild type malignant melanoma cell line; assay: Proliferation inhibition measured by CTG (CellTiter Glo), A375; conditions: Homo sapiens, A-375
Text: as §1, §2, §3

[4] = test system: A427 lung cancer cell line (KRAS G12D mutation); assay: Proliferation inhibition measured by CTG (CellTiter Glo), A427; conditions: Homo sapiens, A-427
Text: as §1, §2, §3

[5] = test system: THP-1 leukemia cell line (NRAS G12D mutation); assay: Proliferation inhibition measured by CTG (CellTiter Glo), THP-1; conditions: Homo sapiens
Text: as §1, §2, §3

NCI-H647 cells (G13D) = assay: Proliferation inhibition measured by CTG (CellTiter Glo), NCI-H647; conditions: Homo sapiens, Table 2, 120 hours incubation
[6] = test system: AGS gastric cancer cell line (KRAS G12D mutation); assay: Proliferation inhibition measured by CTG (CellTiter Glo), AGS
Text: as §1, §2, §3

[7] = test system: Hs 578T breast cancer cell line (HRAS G12D mutation); assay: Proliferation inhibition measured by CTG (CellTiter Glo), Hs 578T; conditions: Homo sapiens
Text: as §1, §2, §3

RPMI 8226 cells (G12A) = assay: Proliferation inhibition measured by CTG (CellTiter Glo), RPMI 8226; conditions: Homo sapiens, Table 2, 120 hours incubation
[8] = test system: SW480 colon cancer cell line (KRAS G12V mutation); assay: Proliferation inhibition measured by CTG (CellTiter Glo), SW480; conditions: Homo sapiens, Table 2, 120 hours incubation, read-out: IC50 SW480 (G12V)
Text: as §1, §2, §3

[9] = test system: PANC-1 pancreatic cancer cell line (KRAS G12D mutation); assay: Proliferation inhibition measured by CTG (CellTiter Glo), PANC-1; conditions: Homo sapiens, Table 2, 120 hours incubation
Text: as §1, §2
The cell suspensions were added to 384- or 96-well plates (384-well plate: 40 μL; 96-well plate: […]) except for peripheral wells. The plates were incubated in a carbon dioxide incubator overnight. Prepared compounds (10 concentration gradients by serial 3-fold dilution) were added to the wells. The cell plates were incubated in a carbon dioxide incubator for 120 hours. CellTiter Glo reagent (384 well plate: 25 μL; 96 well plate: 100 μL) was added to the 384- or 96-well plates. […] The plates were read by EnVision system. Inhibition curves were plotted using XLFit and IC50 values were calculated. […]

A549 cells (G12S) = assay: Proliferation inhibition measured by CTG (CellTiter Glo), A549; conditions: Homo sapiens, Table 2, 120 hours incubation
[10] = Table 1, CTG, 120 hours incubation, class symbol
[11] = Table 1, CTG, 120 hours incubation, class symbol, read-out: IC50 (H358)
[12] = Table 1, CTG, 120 hours incubation, class symbol, read-out: IC50 (A375)
[13] = Table 1, number in parentheses, unit not given in Table 1 (legend and Table 2 use μM)
[14] = Table 1, CTG, 120 hours incubation, class symbol, read-out: IC50 (AGS)

SMILES	IC50 [1, 10] [µM]	IC50 [2, 11] [µM]	IC50 [3, 12] [µM]	IC50 [4, 10] [µM]	IC50 [5, 10] [µM]	IC50 [6, 14] [µM]	IC50 [7, 10] [µM]	other results
CN1CCC[C@H]1COc1nc(N2CCn3cncc3C2)c2ccc(-c3cccc4cccc(Cl)c34)cc2n1 [Compound 1]	0.1 to 1	0.1 to 1	0.1 to 1	0.1 to 1				
CN1CCC[C@H]1COc1nc2c(c(N3CCn4cncc4C3)n1)CCN(c1cccc3cccc(Cl)c13)C2 [Compound 2]	0.1 to 1	≤ 0.1	0.1 to 1	≤ 0.1	≤ 0.1	≤ 0.1	0.1 to 1	IC50 [5, 13]: 0.067 µM; IC50 (NCI-H647 cells (G13D)): 115 nM; IC50 [1, 13]: 0.139 µM; IC50 ([2]; Table 1, number in parentheses, no unit printed in Table 1 (Table 2 gives the same values of compound 2 in μM), read-out: IC50 (H358)): 0.063 µM; IC50 ([2]; Table 2, CTG, 120 hours incubation, read-out: IC50 H358 (G12C)): 0.063 µM; IC50 ([6]; Table 1, number in parentheses, unit not given in Table 1 (Table 2 gives the same value in μM), read-out: IC50 (AGS)): 0.092 µM; IC50 ([6]; Table 2, CTG, 120 hours incubation, read-out: IC50 AGS (G12D)): 0.092 µM; IC50 [7, 13]: 0.237 µM; IC50 (RPMI 8226 cells (G12A)): 128 nM; IC50 [8]: 98 nM; IC50 ([3]; Table 1, number in parentheses, unit not given in Table 1 (Table 2 gives the same value in μM), read-out: IC50 (A375)): 0.167 µM; IC50 ([3]; Table 2, CTG, 120 hours incubation, read-out: IC50 A375 (wide type)): 0.167 µM; IC50 [4, 13]: 0.07 µM; IC50 [9]: 193 nM; IC50 (A549 cells (G12S)): 253 nM
CN1CCC[C@@H]1COc1nc2c(c(N3CCn4cncc4C3)n1)CO[C@H](c1cccc3cccc(Cl)c13)C2 [Compound 4]	1 to 10	1 to 10	0.1 to 1	0.1 to 1				
CN1CCC[C@H]1COc1nc2c(c(N3CCn4c(cnc4CO)C3)n1)CCN(c1cccc3cccc(Cl)c13)C2 [Compound 6]	0.1 to 1	0.1 to 1	0.1 to 1	0.1 to 1				
CN1CCC[C@H]1COc1nc2c(c(N3CCn4c(cnc4N)C3)n1)CCN(c1cccc3cccc(Cl)c13)C2 [Compound 7]	1 to 10	0.1 to 1	0.1 to 1	0.1 to 1				
CN1CCC[C@H]1COc1nc2c(c(N3CCn4c(cnc4C#N)C3)n1)CCN(c1cccc3cccc(Cl)c13)C2 [Compound 8]	1 to 10	1 to 10	0.1 to 1	0.1 to 1				
CN1CCC[C@H]1COc1nc2c(c(N3CCn4cnc(C#N)c4C3)n1)CCN(c1cccc3cccc(Cl)c13)C2 [Compound 9]	≤ 0.1	≤ 0.1	0.1 to 1	≤ 0.1		≤ 0.1		
CN1CCC[C@H]1COc1nc2c(c(N3CCn4nncc4C3)n1)CCN(c1cccc3cccc(Cl)c13)C2 [Compound 10]	0.1 to 1	0.1 to 1	0.1 to 1	0.1 to 1				
CC1CN(c2nc(OC[C@@H]3CCCN3C)nc3c2CCN(c2cccc4cccc(Cl)c24)C3)Cc2cncn21 (stereo partly drawn) [Compound 11]	0.1 to 1	0.1 to 1	0.1 to 1	0.1 to 1				
CN(C)CCOc1nc2c(c(N3CCn4cncc4C3)n1)CCN(c1cccc3cccc(Cl)c13)C2 [Compound 16]	≤ 0.1	0.1 to 1	0.1 to 1	≤ 0.1				
Cc1cccc2cccc(N3CCc4c(nc(OC[C@@H]5CCCN5C)nc4N4CCn5cncc5C4)C3)c12 [Compound 17]	0.1 to 1	0.1 to 1	0.1 to 1	0.1 to 1				
CC(CN(C)C)Oc1nc2c(c(N3CCn4cncc4C3)n1)CCN(c1cccc3cccc(Cl)c13)C2 (stereo not drawn) [Compound 29]	≤ 0.1	≤ 0.1	0.1 to 1		0.1 to 1	≤ 0.1	0.1 to 1	
CN1CCC[C@H]1COc1nc2c(c(N3CCn4cnc(-c5ccccc5)c4C3)n1)CCN(c1cccc3cccc(Cl)c13)C2 [Compound 30]	0.1 to 1	0.1 to 1	0.1 to 1		0.1 to 1	0.1 to 1	1 to 10	
Clc1cccc2cccc(N3CCc4c(nc(OCCN5CCCCC5)nc4N4CCn5cncc5C4)C3)c12 [Compound 31]	0.1 to 1	0.1 to 1	1 to 10		0.1 to 1	0.1 to 1	1 to 10	
CN1CCO[C@@H](COc2nc3c(c(N4CCn5cncc5C4)n2)CCN(c2cccc4cccc(Cl)c24)C3)C1 [Compound 32]	1 to 10	0.1 to 1	1 to 10		1 to 10	1 to 10	1 to 10	
CN1CCC[C@H]1COc1nc2c(c(N3CCn4cnc(Br)c4C3)n1)CCN(c1cccc3cccc(Cl)c13)C2 [Compound 33]	0.1 to 1	≤ 0.1	0.1 to 1		≤ 0.1	≤ 0.1	0.1 to 1	
CN1CCC[C@H]1COc1nc2c(c(N3CCc4oncc4C3)n1)CCN(c1cccc3cccc(Cl)c13)C2 [Compound 34]	0.1 to 1	0.1 to 1	1 to 10		0.1 to 1	0.1 to 1	1 to 10	
CN1CCC2(CC1)CC(Oc1nc3c(c(N4CCn5cncc5C4)n1)CCN(c1cccc4cccc(Cl)c14)C3)C2 [Compound 35]	1 to 10	0.1 to 1	1 to 10		1 to 10	1 to 10	1 to 10	
